One experiment concerns adipocytes derived from a patient with diabetes, who was severely obese. Kind of experiment: Screening of functional food product materials (samples 1 to 71) for APR in adipocytes derived from a severely obese diabetic patient. The following applies: concentration in culture medium 10 nM; 48 hour value divided by 96 hour value. Type of experiment: cell-based, human. The protocol:
Fat tissues were harvested from remainder tissues removed at the time of surgery of a subject (a patient who was severely obese and had diabetes) who provided informed consent. These fat tissues were treated in the same manner as in Example 1 and used in screening for the adiponectin production-promoting action of functional food product materials (samples 1 to 71).
The samples 1 to 71 (Table 1 and Table 2) were suspended and dissolved in water, heated water (80° C.) or DMSO, and then stirred for 30 minutes, followed by filter filtration […]) for preparation thereof. The sample 25 was prepared by filter filtration (Φ0.45 μm) without carrying out dilution. Further, with regard to the samples 1 to 18, each of the samples was made with water to 1% suspension or aqueous solution, followed by filter filtration (Φ0.45 μm) for preparation thereof. Botanbouhu extract of the samples 58 and 59 was prepared in the same manner as in Example 2. Table 1 and Table 2 show material, solvent and concentration in the culture medium of samples 1 to 71 (samples 6 to 8 “Mixture of three types of peptides” (manufactured by Katano Bussan) is a mixture of peptides derived from dried kelp or konbu, sardine and pearl oyster).
Eight days after DM-2 treatment, the medium was changed to AM-1 medium with each of the samples 1 to 71 being added and 48 hour value and 96 hour value were measured in the same manner as described in Example 3. APR (Adiponectin Production Ratio; adiponectin secretion promoting index) was calculated by dividing the 48 hour value by the 96 hour value. The results are shown in Table 1 and Table 2 and FIG. 4A.
Molecule `CCCc1nc2c(C)cc(-c3nc4ccccc4n3C)cc2n1Cc1ccc(-c2ccccc2C(=O)O)cc1` [Sample 61, Telmisartan] gave an APR of 0.54.

`CC(=O)S[C@@H]1CC2=CC(=O)CC[C@]2(C)[C@H]2CC[C@@]3(C)[C@@H](CC[C@@]34CCC(=O)O4)[C@H]12` [Sample 63, Spironolactone] registered an APR of 0.60.

`O=S(=O)(c1cccc2cnccc12)N1CCCNCC1` [Sample 66, Fasudil] registered an APR of 0.58.

Molecule `CCC1=C(C)CN(C(=O)NCCc2ccc(S(=O)(=O)NC(=O)N[C@H]3CC[C@H](C)CC3)cc2)C1=O` [Sample 70, Glimepyride] showed an APR of 0.82.

In the case of `CN(C)C(=N)N=C(N)N` [Sample 71, Metformin], the APR came out at 0.53.

Regarding `CCCc1nc(C(C)(C)O)c(C(=O)O)n1Cc1ccc(-c2ccccc2-c2nnn[nH]2)cc1` [Sample 69, Olmesartan], the APR is recorded as 0.00.

`COC(=O)[C@@H]1CC2=CC(=O)CC[C@]2(C)[C@@]23O[C@@H]2C[C@@]2(C)[C@@H](CC[C@@]24CCC(=O)O4)[C@H]13` [Sample 64, Eplerenone] yielded an APR of 0.62.

`CC(C)(Oc1ccc(CCNC(=O)c2ccc(Cl)cc2)cc1)C(=O)O` [Sample 65, Bezafibrate]: the APR is recorded as 0.75.

In turn, `Cc1c(C(=O)NN2CCCCC2)nn(-c2ccc(Cl)cc2Cl)c1-c1ccc(Cl)cc1` [Sample 62, Rimonabant] had an APR of 0.69.

`CCc1ccc(CCOc2ccc(CC3SC(=O)NC3=O)cc2)nc1` (stereo not shown) [Sample 60, Pioglitazone] gave an APR of 0.96.

Staying with this experiment, now noted: concentration in culture medium 0.067%; 48 hour value divided by 96 hour value.
In the case of Hyaluronic acid [Sample 31], the APR is listed as 0.36.

On to Fucoxanthin [Sample 36], for which the APR came to 0.34.

For `CC1=C(/C=C/C(C)=C/C=C/C(C)=C/C=C/C=C(C)/C=C/C=C(C)/C=C/C2=C(C)C(=O)[C@@H](O)CC2(C)C)C(C)(C)C[C@H](O)C1=O` [Sample 37, Astaxanthin], the APR stood at 0.34.
